Measured values taken from patent US20230303572A1, “18-MC SALT FORMS” (Mind Medicine, Inc., priority 2022, published 2023).
Structures can show the parent of a compound that is named as a salt.

Assays:
[1] = system: cocaine-seeking or "craving" behaviors; conditions: animal model; cited from earlier work
[2] = system: substance use models (nicotine, alcohol, morphine, cocaine and methamphetamine); conditions: animal studies; dosages as low as 10 mg/kg i.p.; cited from earlier work
[3] = Heating experiments and VT-XRPD (N2 drying, heating, cooling back): form change; type: physicochemical; conditions: for form change after N2 drying (VT-XRPD): N2-drying for 20 min at 30° C.; for form conversion, summary statement: after desolvation; for form change after heating (XRPD/VT-XRPD): heating to 100° C.
Description: (§1) For XRPD analysis, a PANalytical Empyrean and X′ Pert3 X-ray powder diffract meter was used.

[4] = Physical form stability on storage at RT, air drying or exposure to ambient conditions (XRPD); type: physicochemical
Description: as §1

[5] = Relative thermodynamic stability of HCl salt forms (desolvation and form conversion data); type: physicochemical
Method: Starting from HCl salt materials with different forms, a total of 100 polymorph screening experiments was performed using different crystallization methods including salt formation by liquid vapor diffusion/slurry at elevated temperature, evaporation at RT/high temperatures, slurry and reverse anti-solvent addition at different temperatures, slow/crash cooling, polymer induced crystallization and grinding. All the resulting solids were isolated for XRPD test, and new forms were further characterized by TGA, DSC, ^1H NMR and HPLC/ IC.
An additional polymorph screening was performed for 18-MC HCl salt.

[6] = solvates of HCl salt, form after desolvation

Compound	effect on cue-induced cocaine-seeking [1]	effect on drug self-administration [2]	form change after N2 drying (VT-XRPD) [3]	form conversion, summary statement [3]	form change after heating (XRPD/VT-XRPD) [3]	form change after heating (VT-XRPD) ([3]; heating to 180° C. under N2 protection)	form change after storage (XRPD) ([4]; storage at RT for ~3 days)	Form after desolvation ([5]; RT storage or heat to 100° C. under N2)	form change after heating (XRPD) ([3]; heating to 80° C. and cooling back to RT)	form change after heating (XRPD) ([3]; heating to 150° C.)	form change after heating (VT-XRPD) ([3]; heating to 210° C. under N2 protection)	Form after desolvation [5, 6]	change after air drying ([4]; air drying at RT, time not stated)
COCC[C@H]1CC2CN3CCc4c([nH]c5ccccc45)[C@](C(=O)OC)(C2)[C@H]13 [18-MC, 18-methoxycoronaridine]	attenuate effects of the environmental cues	significantly reduces drug self-administration	–	–	–	–	–	–	–	–	–	–	–
COCC[C@H]1CC2CN3CCc4c([nH]c5ccccc45)[C@](C(=O)OC)(C2)[C@H]13 [HCl salt Type M, 18-methoxycoronaridine]	–	–	no form change	converted to HCl salt Type A	peaks of HCl salt Type A were observed	most diffraction peaks were consistent with HCl salt Type A with extra peak similar to HCl salt Type K	extra peaks of HCl salt Type A	HCl salt Type A**	–	–	–	–	–
COCC[C@H]1CC2CN3CCc4c([nH]c5ccccc45)[C@](C(=O)OC)(C2)[C@H]13 [HCl salt Type P, 18-methoxycoronaridine]	–	–	no form change	converted to HCl salt Type A	form change to HCl salt Type A	–	–	–	no obvious form change	converted to HCl salt Type A	amorphous sample was observed	HCl salt Type A	–
COCC[C@H]1CC2CN3CCc4c([nH]c5ccccc45)[C@](C(=O)OC)(C2)[C@H]13 [HCl salt Type S, 18-methoxycoronaridine]	–	–	–	converted to HCl salt Type A	–	–	–	–	–	most diffraction peaks were consistent with HCl salt Type A	–	HCl salt Type A	turned to be gel like
